Source: publication PMC7219108, “Pisum sativum Defensin 1 Eradicates Mouse Metastatic Lung Nodules from B16F10 Melanoma Cells” (International Journal of Molecular Sciences, 2020)

Tests used:
[1] = tested on: B16F10 (murine skin melanoma) cells; test: MTT cell viability, B16F10 tumor cells; type: cell-based; conditions: 24 h, two independent experiments in triplicate, p < 0.001 vs untreated
[2] = cited from earlier work
Source text: The mechanism of action proposed for Psd1 antifungal activity includes its interaction with specific cell wall/membrane lipid targets, such as C8-desaturated and C9-methylated glucosylceramide (GlcCer), a fungal exclusive GSL, and ergosterol.

## Psd1: 46-amino acid residue plant defensin isolated from pea seeds, expressed in Pichia pastoris (PDB 1JKZ) (KTCEHLADTYRGVCFTNASCDDHCKNKAHLISGTCHNWKCFCTQNC)
[1]; 25 µM
  Reduction of B16F10 cell viability (MTT): approximately 50%
[1]; 50 µM
  Reduction of B16F10 cell viability (MTT): ~60%
[2]
  Affinity to cholesterol-enriched lipid bilayers: does not show good affinity
